Laboratory results from patent US20250082797A1, “Methods for In Vivo Tracking of Cells” (Wisconsin Alumni Research Foundation, priority 2023, published 2025).

Test system: cell line U937
Assay: Optimization of glycan oxidation conditions, cell viability by trypan blue staining
Type: cell-based
Procedure: Method 2: Conditions for biocompatible oxime ligation and ^89Zr-labeling of monocytes. Reactive aldehydes were generated on the cell surface of the monocytic cell line U937 through sialic acid oxidation with NaIO4. Oxidation conditions were optimized by varying NaIO4 concentration (0.1-10 mM), pH (4.6-7.4), temperature (4 or 37° C.), and incubation time (15 min to 2 h). Subsequently, cells were incubated with AOD (100-500 μM) at room temperature for up to 1 h in the presence of aniline, and cells were washed and resuspended in PBS. Next, AOD-conjugated (5-7×10^6) cells were radiolabeled with ^89Zr (37-74 MBq) at room temperature for 1h, then washed thrice to eliminate unlabeled ^89Zr, and the radiochemical yield was measured by TLC (FIG. 9A-9D). Cell viability was assessed at each step via trypan blue staining (FIG. 8).

SMILES: [Na+].[O-][I+3]([O-])([O-])[O-] [sodium periodate]
- viability of U937 cells after oxidation (1 mM, up to 1 hour): over 90%
- effect of glycan oxidation on cell viability, in words (tested temperature and reaction times): minimal effect on cell viability
